# Measured values from patent US11426473B2, “Nitrogen-containing compound or salt thereof, or metal complex thereof” (FUJIFILM Corporation, priority 2013, dated 2022).
# Columns and labels:
# [1] = system: U87MG cells subcutaneous tumor; assay: Treatment experiment of subcutaneously U87MG-transplanted model using [90Y]-(A8); type: in vivo, mouse; settings: 1 dose; for Rate of inhibition: 12 days after administration, above 100% indicated as 100%; for Tumor volume 12 days after administration / Tumor volume At start of administration: n 10, Mean + SD; for Tumor volume At start of administration: baseline; for The number of individuals having tumor regression: of n 10
# Experimental: (§1) U87MG cells were subcutaneously transplanted at 1×10^7 cells/mouse to the right flank of Balb/c Slc-nu/nu (SLC Japan, Inc., male, 6 weeks old). After 2 weeks, mice whose tumors became 100 to 500 mm^3 were grouped. Phosphate-buffered saline (PBS) or the radiolabeled compound [90Y]-(P2) was administered to the tail veins of the mice, and their tumor volumes were measured. When the tumor volumes of the mice in the PBS group exceeded 2,000 mm^3, which is a humanistic endpoint, the antitumor effect was evaluated. The evaluation values were the rate of inhibition of tumor growth ((1−(Average tumor volume of the compound administration group−Average tumor volume of the compound administration group before administration)/(Average tumor volume of the PBS group−Average tumor volume of the PBS group before administration))×100 (provided that the rate of inhibition exceeding 100% was indicated as 100%)) and the number of individuals having a tumor volume equal to or smaller than that at the start of the experiment (the number of individuals having tumor regression).
# U87MG cells were subcutaneously transplanted at 1×10^7 cells/mouse to the right flank of Balb/cAJcl-nu/nu (CLEA Japan, Inc., male, 6 weeks old). After 2 weeks, mice whose tumors became 100 to 500 mm^3 were grouped. Phosphate-buffered saline (PBS) or the radiolabeled compound [^90Y]-(A8) was administered to the tail veins of the mice, and their tumor volumes were measured. The evaluation values were calculated in the same way as in Test Example 8 to evaluate the antitumor effect.
# [2] = system: T98G cell (human glioblastoma) subcutaneous tumor; assay: Treatment experiment of subcutaneously T98G-transplanted model using [90Y]-(A8); type: in vivo, mouse; settings: Dose 11.1 MBa, 1 dose
# Experimental: as §1
# A mixture of a T98G cell suspension (human glioblastoma, 1×10^7 cells) and Matrigel (Becton, Dickinson and Company) in equal amounts was subcutaneously transplanted to the right flank of Balb/cAJcl-nu/nu (CLEA Japan, Inc., female, 6 weeks old). After 90 days, the mice were grouped when their tumors BECAME 100 to 400 mm^3. Phosphate-buffered saline (PBS) or the radiolabeled compound [^90Y]-(A8) was administered to the tail veins of the mice, and their tumor volumes were measured. The evaluation values were calculated in the same way as in Test Example 8 to evaluate the antitumor effect.
# Integrin αvβ3 = biological target: T1, Integrin αvβ3 (Homo sapiens, UniProt P05106+P06756); assay: Integrin αvβ3 binding affinity test; settings: inhibition of biotinylated vitronectin binding to immobilized αvβ3; read-out: IC50 value αv β3
# T1 construct: purchased Chemicon International, Inc
# Integrin αvβ5 = biological target: T2, Integrin αvβ5 (Homo sapiens, UniProt P06756+P18084); assay: Integrin αvβ5 binding affinity test; settings: inhibition of biotinylated vitronectin binding to immobilized αvβ5; read-out: IC50 value αvβ5
# T2 construct: purchased Chemicon International, Inc
# T2 sequence (P06756 31-889 limits assumed): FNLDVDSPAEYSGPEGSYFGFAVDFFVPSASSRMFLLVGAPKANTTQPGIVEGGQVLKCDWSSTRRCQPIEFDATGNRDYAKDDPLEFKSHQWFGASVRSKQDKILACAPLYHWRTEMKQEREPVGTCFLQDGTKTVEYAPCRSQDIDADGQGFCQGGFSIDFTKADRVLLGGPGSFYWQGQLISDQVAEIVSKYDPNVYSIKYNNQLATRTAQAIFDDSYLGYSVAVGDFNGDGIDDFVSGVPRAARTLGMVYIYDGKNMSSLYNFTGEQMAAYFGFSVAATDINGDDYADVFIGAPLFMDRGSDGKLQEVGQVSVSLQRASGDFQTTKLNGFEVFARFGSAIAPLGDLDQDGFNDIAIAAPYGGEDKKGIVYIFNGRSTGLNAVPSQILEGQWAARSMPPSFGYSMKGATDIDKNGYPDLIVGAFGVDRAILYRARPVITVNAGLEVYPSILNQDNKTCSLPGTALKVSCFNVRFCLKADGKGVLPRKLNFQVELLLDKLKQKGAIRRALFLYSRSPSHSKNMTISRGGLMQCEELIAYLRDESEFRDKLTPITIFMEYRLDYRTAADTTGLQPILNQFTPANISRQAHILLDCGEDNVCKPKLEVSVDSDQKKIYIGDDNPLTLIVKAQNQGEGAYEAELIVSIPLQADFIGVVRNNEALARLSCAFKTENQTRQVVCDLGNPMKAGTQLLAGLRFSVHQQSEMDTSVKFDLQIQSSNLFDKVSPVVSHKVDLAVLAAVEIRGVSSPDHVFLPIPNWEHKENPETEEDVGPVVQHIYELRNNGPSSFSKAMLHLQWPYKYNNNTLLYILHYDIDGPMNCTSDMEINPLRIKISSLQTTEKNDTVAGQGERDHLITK
# T2 sequence (P06756 891-1048 partner limits assumed): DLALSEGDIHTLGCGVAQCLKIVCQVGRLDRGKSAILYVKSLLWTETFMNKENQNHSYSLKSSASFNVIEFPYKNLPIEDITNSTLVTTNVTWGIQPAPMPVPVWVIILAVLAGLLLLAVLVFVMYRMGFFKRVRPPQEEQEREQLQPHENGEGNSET
# T2 sequence (P18084 24-799): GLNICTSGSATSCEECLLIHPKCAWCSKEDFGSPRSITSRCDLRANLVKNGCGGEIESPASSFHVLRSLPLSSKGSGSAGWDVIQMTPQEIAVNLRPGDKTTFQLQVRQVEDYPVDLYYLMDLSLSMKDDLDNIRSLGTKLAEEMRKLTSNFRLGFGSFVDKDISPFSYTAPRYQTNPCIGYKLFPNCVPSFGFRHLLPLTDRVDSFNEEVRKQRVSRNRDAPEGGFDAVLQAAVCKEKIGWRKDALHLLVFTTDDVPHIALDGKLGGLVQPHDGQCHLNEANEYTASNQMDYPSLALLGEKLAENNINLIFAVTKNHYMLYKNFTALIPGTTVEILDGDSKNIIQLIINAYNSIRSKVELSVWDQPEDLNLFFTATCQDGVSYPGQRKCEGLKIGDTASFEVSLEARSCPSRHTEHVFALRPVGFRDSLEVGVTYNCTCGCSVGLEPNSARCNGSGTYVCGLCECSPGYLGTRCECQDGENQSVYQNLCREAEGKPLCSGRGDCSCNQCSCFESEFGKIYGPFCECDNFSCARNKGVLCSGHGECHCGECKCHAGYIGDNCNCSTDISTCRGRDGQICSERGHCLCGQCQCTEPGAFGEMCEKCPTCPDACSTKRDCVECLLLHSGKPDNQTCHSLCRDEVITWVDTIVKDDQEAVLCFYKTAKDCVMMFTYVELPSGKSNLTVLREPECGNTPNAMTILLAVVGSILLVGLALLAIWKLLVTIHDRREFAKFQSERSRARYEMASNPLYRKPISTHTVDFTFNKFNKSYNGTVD
# T1 sequence (P06756 31-889 limits assumed): as the sequence (P06756 31-889 limits assumed) above
# T1 sequence (P06756 891-1048 partner limits assumed): as the sequence (P06756 891-1048 partner limits assumed) above
# T1 sequence (P05106 27-788): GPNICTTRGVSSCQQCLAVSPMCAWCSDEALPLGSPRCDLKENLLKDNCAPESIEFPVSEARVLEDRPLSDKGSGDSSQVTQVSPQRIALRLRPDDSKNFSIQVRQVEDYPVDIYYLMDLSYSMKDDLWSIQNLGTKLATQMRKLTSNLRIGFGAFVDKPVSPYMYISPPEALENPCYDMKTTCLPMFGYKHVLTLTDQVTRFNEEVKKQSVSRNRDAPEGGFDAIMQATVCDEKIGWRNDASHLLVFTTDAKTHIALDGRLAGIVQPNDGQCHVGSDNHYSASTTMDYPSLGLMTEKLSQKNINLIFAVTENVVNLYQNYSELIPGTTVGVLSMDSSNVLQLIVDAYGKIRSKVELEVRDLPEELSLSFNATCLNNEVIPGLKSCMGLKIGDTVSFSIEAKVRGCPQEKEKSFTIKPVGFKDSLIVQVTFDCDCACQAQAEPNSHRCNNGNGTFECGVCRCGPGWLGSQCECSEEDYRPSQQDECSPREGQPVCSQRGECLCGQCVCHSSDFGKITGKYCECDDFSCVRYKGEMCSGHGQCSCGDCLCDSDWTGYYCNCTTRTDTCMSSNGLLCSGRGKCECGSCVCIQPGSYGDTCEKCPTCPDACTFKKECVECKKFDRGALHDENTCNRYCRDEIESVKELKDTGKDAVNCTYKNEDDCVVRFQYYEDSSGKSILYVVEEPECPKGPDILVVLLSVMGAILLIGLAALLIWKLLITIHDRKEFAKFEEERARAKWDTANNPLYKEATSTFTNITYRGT
compound,measurement,setting,value
Cc1cc(OCCCC(=O)NCCNC(=O)C(CS(=O)(=O)O)NC(=O)C(CS(=O)(=O)O)NC(=O)CN2CCN(CC(=O)[O-])CCN(CC(=O)[O-])CCN(CC(=O)[O-])CC2)cc(C)c1S(=O)(=O)NC(CNC(=O)c1ccc(CCc2ccc3c(n2)NCCC3)cc1)C(=O)O.[90Y+3] (centres unmarked) [[^90Y]-(A8)],Rate of inhibition,[1]; Dose 5.55 MBa,69%
same,Tumor volume 12 days after administration,[1]; Dose 5.55 MBa,759 ± 344 mm^3
same,Tumor volume At start of administration,[1]; Dose 5.55 MBa,239 ± 89 mm^3
same,The number of individuals having tumor regression,[1]; Dose 5.55 MBa,0
same,Rate of inhibition,[1]; Dose 11.1 MBa,100%
same,Tumor volume 12 days after administration,[1]; Dose 11.1 MBa,199 ± 88 mm^3
same,Tumor volume At start of administration,[1]; Dose 11.1 MBa,243 ± 101 mm^3
same,The number of individuals having tumor regression,[1]; Dose 11.1 MBa,7
same,Rate of inhibition,[1]; Dose 14.8 MBa,100%
same,Tumor volume 12 days after administration,[1]; Dose 14.8 MBa,251 ± 112 mm^3
same,Tumor volume At start of administration,[1]; Dose 14.8 MBa,251 ± 110 mm^3
same,The number of individuals having tumor regression,[1]; Dose 14.8 MBa,6
same,Rate of inhibition,"[2]; 22 days after administration, above 100% indicated as 100%",100%
same,Tumor volume 22 days after administration,"[2]; n 8, Mean ± SD",123 ± 60 mm^3
same,Tumor volume At start of administration,"[2]; n 8, Mean ± SD, baseline",201 ± 75 mm^3
same,The number of individuals having tumor regression,[2]; of n 8,6
"Cc1cc(OCCCC(=O)NCCNC(=O)[C@H](CS(=O)(=O)O)NC(=O)CN2CCN(CC(=O)O)CCN(CC(=O)O)CCN(CC(=O)O)CC2)cc(C)c1S(=O)(=O)N[C@@H](CNC(=O)c1ccc(CCc2cccc(N)n2)cc1)C(=O)O [Compound M2, 2,2′,2″-(10-(2-(((R)-1-((2-(4-(4-(N—((S)-2-(4-(2-(6-aminopyridin-2-yl)ethyl)benzamido)-1-carboxyethyl)sulfamoyl)-3,5-dimethylphenoxy)butanamido)ethyl)amino)-1-oxo-3-sulfopropan-2-yl)amino)-2-oxoethyl)-1,4,7,10-tetraazacyclododecane-1,4,7-triyl)triacetic acid]",IC50,Integrin αvβ3,< 1 nM
same,IC50,Integrin αvβ5,< 1 nM
"Cc1cc(OCCCC(=O)NCCNC(=O)[C@H](CS(=O)(=O)O)NC(=O)[C@H](CS(=O)(=O)O)NC(=O)CN2CCN(CC(=O)O)CCN(CC(=O)O)CCN(CC(=O)O)CC2)cc(C)c1S(=O)(=O)N[C@@H](CNC(=O)c1ccc(CCc2cccc(N)n2)cc1)C(=O)O [Compound N3, 2,2′,2″-(10-((4R,7R)-16-(4-(N—((S)-2-(4-(2-(6-aminopyridin-2-yl)ethyl)benzamido)-1-carboxyethyl)sulfamoyl)-3,5-dimethylphenoxy)-2,5,8,13-tetraoxo-4,7-bis(sulfomethyl)-3,6,9,12-tetraazahexadecyl)-1,4,7,10-tetraazacyclododecane-1,4,7-triyl)triacetic acid]",IC50,Integrin αvβ3,< 1 nM
same,IC50,Integrin αvβ5,< 1 nM
"Cc1cc(OCCCC(=O)NCCNC(=O)[C@H](CS(=O)(=O)O)NC(=O)[C@H](CS(=O)(=O)O)NC(=O)CN2CCN(CC(=O)O)CCN(CC(=O)O)CCN(CC(=O)O)CC2)cc(C)c1S(=O)(=O)N[C@@H](CNC(=O)c1ccc(CCc2ccc3c(n2)NCCC3)s1)C(=O)O [Compound X9, 2,2′,2″-(10-((4R,7R)-16-(4-(N—((S)-1-carboxy-2-(5-(2-(5,6,7,8-tetrahydro-1,8-naphthyridin-2-yl)ethyl)thiophene-2-carboxamido)ethyl)sulfamoyl)-3,5-dimethylphenoxy)-2,5,8,13-tetraoxo-4,7-bis(sulfomethyl)-3,6,9,12-tetraazahexadecyl)-1,4,7,10-tetraazacyclododecane-1,4,7-triyl)triacetic acid]",IC50,Integrin αvβ3,< 1 nM
same,IC50,Integrin αvβ5,1 to 10 nM
"Cc1cc(OCCCC(=O)NCCNC(=O)[C@H](CS(=O)(=O)O)NC(=O)CN2CCN(CC(=O)O)CCN(CC(=O)O)CCN(CC(=O)O)CC2)cc(C)c1S(=O)(=O)N[C@@H](CNC(=O)CCCCc1ccc2c(n1)NCCC2)C(=O)O [Compound P2, 2,2′,2′-(10-(2-(((R)-1-((2-(4-(4-(N—((S)-1-carboxy-2-(5-(5,6,7,8-tetrahydro-1,8-naphthyridin-2-yl)pentanamido)ethyl)sulfamoyl)-3,5-dimethylphenoxy)butanamido)ethyl)amino)-1-oxo-3-sulfopropan-2-yl)amino)-2-oxoethyl)-1,4,7,10-tetraazacyclododecane-1,4,7-triyl)triacetic acid]",IC50,Integrin αvβ3,< 1 nM
same,IC50,Integrin αvβ5,< 1 nM
"Cc1cc(OCCCC(=O)NCCNC(=O)[C@H](CS(=O)(=O)O)NC(=O)[C@H](CS(=O)(=O)O)NC(=O)CN2CCN(CC(=O)O)CCN(CC(=O)O)CCN(CC(=O)O)CC2)cc(C)c1S(=O)(=O)N[C@@H](CNC(=O)c1ccc(CCc2ccc3c(n2)NCCC3)cc1)C(=O)O [Compound A8, 2,2′,2″-(10-((4R,7R)-16-(4-(N—((S)-1-carboxy-2-(4-(2-(5,6,7,8-tetrahydro-1,8-naphthyridin-2-yl)ethyl)benzamido)ethyl)sulfamoyl)-3,5-dimethylphenoxy)-2,5,8,13-tetraoxo-4,7-bis(sulfomethyl)-3,6,9,12-tetraazahexadecyl)-1,4,7,10-tetraazacyclododecane-1,4,7-triyl)triacetic acid]",IC50,Integrin αvβ3,< 1 nM
same,IC50,Integrin αvβ5,< 1 nM
